Experiments:
Assay type in all cases: cell-based
[1] = system: N87 (gastric cancer) cells, Her2-target expressing; assay: In vitro cell assay, cell viability by MTS, N87; conditions: 96 h, read-out: Average IC50, N87
Experimental: (§1) Her2-Target expressing (BT474 (breast cancer), N87 (gastric cancer), MDA-MB-361-DYT2 (breast cancer)) or Her2-non-expressing (MDA-MB-468, HT29) cells, or 0033-target expressing HL60, HEL92.1.7, NB4, TF-1 or 0033-non-expressing (Raji) cells were seeded in 96-well cell culture plates for 24 hours before treatment. Cells were treated with 3-fold serially diluted antibody-drug conjugates or free compounds (i.e., no antibody conjugated to the drug) in duplicate at 10 concentrations. Cell viability was determined by CellTiter 96® AQueous One Solution Cell Proliferation MTS Assay (Promega, Madison WI) 96 hours after treatment. Relative cell viability was determined as percentage of untreated control. IC50 values were calculated using a four parameter logistic model #203 with XLfit v4.2 (IDBS, Guildford, Surry, UK). Results are shown below in Table 3 (for payloads), Table 4 (for Herceptin conjugates), and Table 5 (for CD33 conjugates).

[2] = system: MDA-MB-361-DYT2 (breast cancer) cells, Her2-target expressing; assay: In vitro cell assay, cell viability by MTS, MDA-MB-361-DYT2; conditions: 96 h, read-out: Average IC50, MDA-MB-361-DYT2
Experimental: as §1

[3] = system: HT29 cells, Her2-non-expressing; assay: In vitro cell assay, cell viability by MTS, HT29; conditions: Homo sapiens, HT-29, 96 h, read-out: Average IC50, HT29
Experimental: as §1

[4] = system: HL60 cells, CD33-target expressing; assay: In vitro cell assay, cell viability by MTS, HL60; conditions: Homo sapiens, HL-60, 96 h, read-out: Average IC50, HL-60
Experimental: as §1

[5] = system: TF-1 cells, CD33-target expressing; assay: In vitro cell assay, cell viability by MTS, TF-1; conditions: Homo sapiens, TF-1, 96 h, read-out: Average IC50, TF-1
Experimental: as §1

[6] = system: Raji cells, CD33-non-expressing; assay: In vitro cell assay, cell viability by MTS, Raji; conditions: Homo sapiens, 96 h, read-out: Average IC50, Raji
Experimental: as §1

Row | Compound | IC50 [1] [nM] | IC50 [2] [nM] | IC50 [3] [nM] | IC50 [4] [nM] | IC50 [5] [nM] | IC50 [6] [nM]
1 | CCN[C@H]1CO[C@@H](O[C@H]2[C@H](O[C@H]3C#C/C=C\C#C[C@]4(O)CC(=O)C(NC(=O)OC)=C3/C4=C\CSSC(C)C(=O)O)O[C@H](C)[C@@H](NO[C@H]3C[C@H](O)[C@H](SC(=O)c4c(C)c(I)c(O[C@@H]5O[C@@H](C)[C@H](O)[C@@H](OC)[C@H]5O)c(OC)c4OC)[C@@H](C)O3)[C@@H]2O)C[C@@H]1OC (mixture of isomers) [Example P9] | 0.392 | 1.89 | 0.334 |  |  | 
2 | CCNC1COC(OC2C(OC3C#C/C=C\C#C[C@]4(O)CC(=O)C(NC(=O)OC)=C3/C4=C\CSSC3CC3)OC(C)C(NOC3CC(O)C(SC(=O)c4c(C)c(I)c(OC5OC(C)C(O)C(OC)C5O)c(OC)c4OC)C(C)O3)C2O)CC1OC (stereo in doubt) [Example P18] | 0.033 | 0.017 | 0.005 | 0.005 | 0.093 | 0.003
3 | CCNC1COC(OC2C(OC3C#C/C=C\C#C[C@]4(O)CC(=O)C(NC(=O)OC)=C3/C4=C\CSSC3CCCC3)OC(C)C(NOC3CC(O)C(SC(=O)c4c(C)c(I)c(OC5OC(C)C(O)C(OC)C5O)c(OC)c4OC)C(C)O3)C2O)CC1OC (stereo in doubt) [Example P20] | 0.004 | 0.005 | 0.002 |  |  | 
4 | CCNC1COC(OC2C(OC3C#C/C=C\C#C[C@]4(O)CC(=O)C(NC(=O)OC)=C3/C4=C\CSSC3CCCCC3)OC(C)C(NOC3CC(O)C(SC(=O)c4c(C)c(I)c(OC5OC(C)C(O)C(OC)C5O)c(OC)c4OC)C(C)O3)C2O)CC1OC (stereo in doubt) [Example P21] | 0.013 | 0.064 | 0.012 |  |  | 
5 | CCN[C@H]1CO[C@@H](O[C@@H]2C(O)[C@H](NO[C@H]3C[C@H](O)[C@H](SC(=O)c4c(C)c(I)c(O[C@@H]5O[C@@H](C)[C@H](O)[C@@H](OC)[C@H]5O)c(OC)c4OC)[C@@H](C)O3)[C@@H](C)O[C@H]2O[C@H]2C#C/C=C\C#C[C@]3(O)CC(=O)C(NC(=O)OC)=C2/C3=C\CSSc2ccncc2)C[C@@H]1OC (stereo in doubt) [Example P44] | 0.418 | > 10 | 1.26 | 0.127 | 1.48 | 0.171
6 | CCN[C@H]1CO[C@@H](O[C@H]2[C@H](O[C@H]3C#C/C=C\C#C[C@]4(O)CC(=O)C(NC(=O)OC)=C3/C4=C\CSSC(C)(C)CCN)O[C@H](C)[C@@H](NO[C@H]3C[C@H](O)[C@H](SC(=O)c4c(C)c(I)c(O[C@@H]5O[C@@H](C)[C@H](O)[C@@H](OC)[C@H]5O)c(OC)c4OC)[C@@H](C)O3)[C@@H]2O)C[C@@H]1OC [Example P8] | 0.804 | 0.063 | 0.07 | 0.081 | 0.36 | 0.028
7 | CCN[C@H]1CO[C@@H](O[C@H]2[C@H](O[C@H]3C#C/C=C\C#C[C@]4(O)CC(=O)C(NC(=O)OC)=C3/C4=C\CSSC[C@H](NC(=O)CC[C@H](N)C(=O)O)C(=O)NCC(=O)O)O[C@H](C)[C@@H](NO[C@H]3C[C@H](O)[C@H](SC(=O)c4c(C)c(I)c(O[C@@H]5O[C@@H](C)[C@H](O)[C@@H](OC)[C@H]5O)c(OC)c4OC)[C@@H](C)O3)[C@@H]2O)C[C@@H]1OC [Example P14] | 2.73 | 15.6 | 2.22 |  |  | 
8 | CCN[C@H]1CO[C@@H](O[C@H]2[C@H](O[C@H]3C#C/C=C\C#C[C@]4(O)CC(=O)C(NC(=O)OC)=C3/C4=C\CSSC3CCN(C)CC3)O[C@H](C)[C@@H](NO[C@H]3C[C@H](O)[C@H](SC(=O)c4c(C)c(I)c(O[C@@H]5O[C@@H](C)[C@H](O)[C@@H](OC)[C@H]5O)c(OC)c4OC)[C@@H](C)O3)[C@@H]2O)C[C@@H]1OC [Example P15] | 0.077 | 0.077 | 0.12 |  |  | 
9 | CCN[C@H]1CO[C@@H](O[C@H]2[C@H](O[C@H]3C#C/C=C\C#C[C@]4(O)CC(=O)C(NC(=O)OC)=C3/C4=C\CSSC3CCN(C(=O)OC(C)(C)C)CC3)O[C@H](C)[C@@H](NO[C@H]3C[C@H](O)[C@H](SC(=O)c4c(C)c(I)c(O[C@@H]5O[C@@H](C)[C@H](O)[C@@H](OC)[C@H]5O)c(OC)c4OC)[C@@H](C)O3)[C@@H]2O)C[C@@H]1OC [Example P17] | 2.38 | 0.152 | 0.501 |  |  | 
10 | CCN[C@H]1CO[C@@H](O[C@H]2[C@H](O[C@H]3C#CC=CC#C[C@]4(O)CC(=O)C(NC(=O)OC)=C3/C4=C\CSSC3CCC3)O[C@H](C)[C@@H](NO[C@H]3C[C@H](O)[C@H](SC(=O)c4c(C)c(I)c(O[C@@H]5O[C@@H](C)[C@H](O)[C@@H](OC)[C@H]5O)c(OC)c4OC)[C@@H](C)O3)[C@@H]2O)C[C@@H]1OC [Example P19] | 0.005 | 0.005 | 0.004 |  |  | 
11 | CCN[C@H]1CO[C@@H](O[C@H]2[C@H](O[C@H]3C#C/C=C\C#C[C@]4(O)CC(=O)C(NC(=O)OC)=C3/C4=C\CSSC34CC5CC(CC(C5)C3)C4)O[C@H](C)[C@@H](NO[C@H]3C[C@H](O)[C@H](SC(=O)c4c(C)c(I)c(O[C@@H]5O[C@@H](C)[C@H](O)[C@@H](OC)[C@H]5O)c(OC)c4OC)[C@@H](C)O3)[C@@H]2O)C[C@@H]1OC [Example P22] | 0.015 | 0.044 | 0.009 |  |  | 
12 | CCN[C@H]1CO[C@@H](O[C@H]2[C@H](O[C@H]3C#C/C=C\C#C[C@]4(O)CC(=O)C(NC(=O)OC)=C3/C4=C\CSSC(C)(C)C#N)O[C@H](C)[C@@H](NO[C@H]3C[C@H](O)[C@H](SC(=O)c4c(C)c(I)c(O[C@@H]5O[C@@H](C)[C@H](O)[C@@H](OC)[C@H]5O)c(OC)c4OC)[C@@H](C)O3)[C@@H]2O)C[C@@H]1OC [Example P23] | 0.005 | 0.007 | 0.012 |  |  | 
13 | CCN[C@H]1CO[C@@H](O[C@H]2[C@H](O[C@H]3C#C/C=C\C#C[C@]4(O)CC(=O)C(NC(=O)OC)=C3/C4=C\CSSC(C)(C)c3cccnc3N)O[C@H](C)[C@@H](NO[C@H]3C[C@H](O)[C@H](SC(=O)c4c(C)c(I)c(O[C@@H]5O[C@@H](C)[C@H](O)[C@@H](OC)[C@H]5O)c(OC)c4OC)[C@@H](C)O3)[C@@H]2O)C[C@@H]1OC [Example P26] | 0.035 | 0.017 | 0.004 | 0.002 | 0.036 | 0.004
14 | CCN[C@H]1CO[C@@H](O[C@H]2[C@H](O[C@H]3C#C/C=C\C#C[C@]4(O)CC(=O)C(NC(=O)OC)=C3/C4=C\CSSC(C)(C)c3ccc(N)cc3)O[C@H](C)[C@@H](NO[C@H]3C[C@H](O)[C@H](SC(=O)c4c(C)c(I)c(O[C@@H]5O[C@@H](C)[C@H](O)[C@@H](OC)[C@H]5O)c(OC)c4OC)[C@@H](C)O3)[C@@H]2O)C[C@@H]1OC [Example P27] | 0.04 | 0.003 | 0.006 | 0.004 | 0.02 | 0.002
15 | CCN[C@H]1CO[C@@H](O[C@H]2[C@H](O[C@H]3C#C/C=C\C#C[C@]4(O)CC(=O)C(NC(=O)OC)=C3/C4=C\CSSC(C)(C)c3ccc(C(=O)O)cc3)O[C@H](C)[C@@H](NO[C@H]3C[C@H](O)[C@H](SC(=O)c4c(C)c(I)c(O[C@@H]5O[C@@H](C)[C@H](O)[C@@H](OC)[C@H]5O)c(OC)c4OC)[C@@H](C)O3)[C@@H]2O)C[C@@H]1OC [Example P29] | 0.17 | 0.025 | 0.036 | 0.025 | 0.466 | 0.015
16 | CCN[C@H]1CO[C@@H](O[C@H]2[C@H](O[C@H]3C#C/C=C\C#C[C@]4(O)CC(=O)C(NC(=O)OC)=C3/C4=C\CSSC(C)(C)CC(N)=O)O[C@H](C)[C@@H](NO[C@H]3C[C@H](O)[C@H](SC(=O)c4c(C)c(I)c(O[C@@H]5O[C@@H](C)[C@H](O)[C@@H](OC)[C@H]5O)c(OC)c4OC)[C@@H](C)O3)[C@@H]2O)C[C@@H]1OC [Example P30] | 0.308 | 0.049 | 0.057 | 0.049 | 0.112 | 0.03
17 | CCN[C@H]1CO[C@@H](O[C@H]2[C@H](O[C@H]3C#C/C=C\C#C[C@]4(O)CC(=O)C(NC(=O)OC)=C3/C4=C\CSSC(C)(C)CC(=O)N(C)C)O[C@H](C)[C@@H](NO[C@H]3C[C@H](O)[C@H](SC(=O)c4c(C)c(I)c(O[C@@H]5O[C@@H](C)[C@H](O)[C@@H](OC)[C@H]5O)c(OC)c4OC)[C@@H](C)O3)[C@@H]2O)C[C@@H]1OC [Example P31] | 0.051 | 0.032 | 0.01 | 0.011 | 0.084 | 0.008
18 | CCN[C@H]1CO[C@@H](O[C@H]2[C@H](O[C@H]3C#C/C=C\C#C[C@]4(O)CC(=O)C(NC(=O)OC)=C3/C4=C\CSSC(C)(C)CC(=O)O)O[C@H](C)[C@@H](NO[C@H]3C[C@H](O)[C@H](SC(=O)c4c(C)c(I)c(O[C@@H]5O[C@@H](C)[C@H](O)[C@@H](OC)[C@H]5O)c(OC)c4OC)[C@@H](C)O3)[C@@H]2O)C[C@@H]1OC [Example P32] | 0.015 | 0.013 | 0.004 | 0.003 | 0.038 | 0.004
